Biological target: T1, Bile acid receptor (Homo sapiens) (UniProt Q96RI1)
T1 sequence (whole entry): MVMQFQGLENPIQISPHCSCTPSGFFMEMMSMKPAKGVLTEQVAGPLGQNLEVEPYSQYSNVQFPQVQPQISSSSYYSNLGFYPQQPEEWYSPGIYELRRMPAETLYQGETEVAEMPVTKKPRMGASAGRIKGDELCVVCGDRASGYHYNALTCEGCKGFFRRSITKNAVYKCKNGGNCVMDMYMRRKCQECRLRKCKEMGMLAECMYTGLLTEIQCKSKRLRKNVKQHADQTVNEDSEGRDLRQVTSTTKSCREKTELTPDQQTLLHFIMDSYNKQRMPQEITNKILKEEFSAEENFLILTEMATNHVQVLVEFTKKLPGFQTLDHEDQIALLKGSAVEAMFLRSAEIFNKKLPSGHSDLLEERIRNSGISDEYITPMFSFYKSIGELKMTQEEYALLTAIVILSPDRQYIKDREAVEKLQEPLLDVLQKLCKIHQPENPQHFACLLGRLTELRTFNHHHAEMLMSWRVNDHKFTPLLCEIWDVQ

CC(C)c1onc(-c2c(Cl)cccc2Cl)c1COc1ccc(/C=C/c2cccc(C(=O)O)c2)c(Cl)c1
RE: 1.4

— ChEMBL document CHEMBL1133440, “Identification of a chemical tool for the orphan nuclear receptor FXR” (J Med Chem, 2000)
